Our source for the TGI and GI50 values is PubChem BioAssay (NCI).

Where “and” joins values, the source holds several entries; their conditions need not be identical. Identical values can stand only once.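 A five-concentration, 48-hour dose response in 96-well plates underlies each endpoint, interpolated linearly between surrounding concentrations. At the GI50, growth is halved. Definition used: TGI = concentration required for complete inhibition of growth.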

The first assay has as its system SF-268 CNS. As to the kind of experiment: NCI-60 cell line screen, 48 h.
For the compound `CC(=O)OC12c3ccccc3-c3ccccc3C1C1C(=O)N(C)C(=O)C12Cl` (configuration not stated), the TGI was more than 10 µM.
As for `COc1c(OC)c(OC)c(C(=O)/C=C/c2ccccc2)c(OC)c1OC`, the TGI stood at 22.1 µM.
As to `COc1ccc(C(O)c2nccn2C)c(OC)c1` (configuration not stated), the TGI was more than 100 µM.
As to `NS(=O)(=O)c1ccc(N(/C=C/C(=O)C(F)(F)F)CC(=O)c2ccc(Cl)cc2)cc1`, the GI50 is 34.5 µM and the TGI is more than 100 µM.
In the case of `CS(=O)(=O)CCCn1c(=O)c(Oc2ccc(F)cc2F)cc2cnc(NC3CCOCC3)nc21`, the GI50 is more than 25 µM and the TGI was more than 25 µM.
As to `N#C/C=C(\c1ccc([N+](=O)[O-])cc1)n1nnc2cc(Cl)c(Cl)cc21`, the GI50 was 3.58 µM and the TGI turned out to be 33.5 µM.
Compound `O=C(CC(O)(C(F)(F)F)C(F)(F)F)c1cc(CC(=O)C(O)(C(F)(F)F)C(F)(F)F)cc(CC(=O)C(O)(C(F)(F)F)C(F)(F)F)c1` showed a TGI of more than 10 µM.
For the compound `CC1(C)OCCn2c1nc1c(N3CCOCC3)nc(-c3cnc(N)nc3)nc12`, the GI50 was 0.426 µM and the TGI is more than 100 µM.
In the case of `O=C(c1c(F)ccc(NS(=O)(=O)N2CC[C@@H](F)C2)c1F)c1c[nH]c2ncc(-c3cnc(C4CC4)nc3)cc12`, the GI50 is 5.86 µM and 6.77 µM; the TGI was > 10 µM and 71.3 µM.

Another assay deals with SK-MEL-5 melanoma. As to the kind of experiment: NCI-60 cell line screen, 48 h.
For `COc1ccc(-c2oc(=O)ccc2-c2cc(OC)c(OC)c(OC)c2)cc1F`, the GI50 is 7.46 µM and the TGI is 58.7 µM.
For `O=C(c1ccc(F)c(F)c1Nc1ccc(I)cc1F)N1CC(O)([C@@H]2CCCCN2)C1`, the TGI was 8.56 µM and > 10 µM.
`Oc1cc(O)c2c(c1)OC(c1ccc(O)c(O)c1)C(OC1(c3cc(O)c(O)c(O)c3)Oc3cc(O)cc(O)c3C(O)C1O)C2` (configuration not stated) returned a TGI of 34 µM.
As to `COc1cc(CNCCCN2C(=O)c3ccc4c5c(ccc(c35)C2=O)C(=O)N(CCCNCc2cc(OC)c(OC)c(OC)c2)C4=O)cc(OC)c1OC`, the GI50 is 0.39 µM and the TGI is 1.03 µM.
The like results for `CC(C)=CCc1cc(O)cc2c1OC(C=C(C)C)C1=C2C(=O)C2=C(NCCS2(=O)=O)C1=O` (configuration not stated) were, in that order, 0.751 µM and 2.88 µM.
Consider `O=c1[nH]c(=O)n(C2CC(O)C(CO)O2)cc1CO` (configuration not stated), for which the GI50 was more than 100 µM and the TGI is more than 100 µM.
Regarding `Cc1nc2cnc(N)c(C#Cc3cncc(C(=O)Nc4ccc(CN5CCN(C)CC5)c(C(F)(F)F)c4)c3)c2nc1C`, the GI50 was 0.748 µM and the TGI was 6.07 µM.
Consider `CC(=O)OC12c3ccccc3-c3ccccc3C1C1C(=O)N(C)C(=O)C12Cl` (configuration not stated), for which the TGI is more than 10 µM.
In turn, `COc1c(OC)c(OC)c(C(=O)/C=C/c2ccccc2)c(OC)c1OC` gave a TGI of 26.3 µM.
Same read-out and setting: in the case of `COc1ccc(C(O)c2nccn2C)c(OC)c1` (configuration not stated) it was more than 100 µM.
In the case of `NS(=O)(=O)c1ccc(N(/C=C/C(=O)C(F)(F)F)CC(=O)c2ccc(Cl)cc2)cc1`, the GI50 was 38.9 µM and the TGI is more than 100 µM.
The like results for `CS(=O)(=O)CCCn1c(=O)c(Oc2ccc(F)cc2F)cc2cnc(NC3CCOCC3)nc21` were, in that order, more than 25 µM and more than 25 µM.
Take `N#C/C=C(\c1ccc([N+](=O)[O-])cc1)n1nnc2cc(Cl)c(Cl)cc21`: the GI50 was 1.83 µM and the TGI stood at 3.6 µM.
Compound `O=C(CC(O)(C(F)(F)F)C(F)(F)F)c1cc(CC(=O)C(O)(C(F)(F)F)C(F)(F)F)cc(CC(=O)C(O)(C(F)(F)F)C(F)(F)F)c1` returned a TGI of 3.04 µM.
Consider `CC1(C)OCCn2c1nc1c(N3CCOCC3)nc(-c3cnc(N)nc3)nc12`, for which the GI50 was 0.346 µM and the TGI turned out to be 2.9 µM.
With `O=C(c1c(F)ccc(NS(=O)(=O)N2CC[C@@H](F)C2)c1F)c1c[nH]c2ncc(-c3cnc(C4CC4)nc3)cc12`, the GI50 is 1.01 µM and 0.651 µM; the TGI is > 10 µM and 16.7 µM.

Another assay relates to SN12C renal. As to the kind of experiment: NCI-60 cell line screen, 48 h.
On to `COc1ccc(-c2oc(=O)ccc2-c2cc(OC)c(OC)c(OC)c2)cc1F`, for which the GI50 was 38.1 µM and the TGI is more than 100 µM.
For the compound `O=C(c1ccc(F)c(F)c1Nc1ccc(I)cc1F)N1CC(O)([C@@H]2CCCCN2)C1`, the GI50 was 2.03 µM and 1.14 µM; the TGI was 18.7 µM and > 10 µM.
Take `Oc1cc(O)c2c(c1)OC(c1ccc(O)c(O)c1)C(OC1(c3cc(O)c(O)c(O)c3)Oc3cc(O)cc(O)c3C(O)C1O)C2` (configuration not stated): the TGI came to 46.2 µM.
On to `COc1cc(CNCCCN2C(=O)c3ccc4c5c(ccc(c35)C2=O)C(=O)N(CCCNCc2cc(OC)c(OC)c(OC)c2)C4=O)cc(OC)c1OC`, for which the GI50 was 0.227 µM and the TGI amounted to 0.475 µM.
The like results for `CC(C)=CCc1cc(O)cc2c1OC(C=C(C)C)C1=C2C(=O)C2=C(NCCS2(=O)=O)C1=O` (configuration not stated) were, in that order, 0.414 µM and 2.02 µM.
For `O=c1[nH]c(=O)n(C2CC(O)C(CO)O2)cc1CO` (configuration not stated) the same measures were 91.7 µM and more than 100 µM.
The like results for `Cc1nc2cnc(N)c(C#Cc3cncc(C(=O)Nc4ccc(CN5CCN(C)CC5)c(C(F)(F)F)c4)c3)c2nc1C` were, in that order, 0.381 µM and 11.8 µM.
On to `CC(=O)OC12c3ccccc3-c3ccccc3C1C1C(=O)N(C)C(=O)C12Cl` (configuration not stated), for which the TGI was more than 10 µM.
On the same count and under the same terms, in the case of `COc1c(OC)c(OC)c(C(=O)/C=C/c2ccccc2)c(OC)c1OC` it was 26.9 µM; in that of `COc1ccc(C(O)c2nccn2C)c(OC)c1` (configuration not stated), more than 100 µM.
Take `NS(=O)(=O)c1ccc(N(/C=C/C(=O)C(F)(F)F)CC(=O)c2ccc(Cl)cc2)cc1`: the GI50 was 29.3 µM and the TGI is more than 100 µM.
Take `CS(=O)(=O)CCCn1c(=O)c(Oc2ccc(F)cc2F)cc2cnc(NC3CCOCC3)nc21`: the GI50 was more than 25 µM and the TGI is more than 25 µM.
With `N#C/C=C(\c1ccc([N+](=O)[O-])cc1)n1nnc2cc(Cl)c(Cl)cc21`, the GI50 is 2.08 µM and the TGI was 5.4 µM.
`O=C(CC(O)(C(F)(F)F)C(F)(F)F)c1cc(CC(=O)C(O)(C(F)(F)F)C(F)(F)F)cc(CC(=O)C(O)(C(F)(F)F)C(F)(F)F)c1` showed a TGI of 6.71 µM.
On to `CC1(C)OCCn2c1nc1c(N3CCOCC3)nc(-c3cnc(N)nc3)nc12`, for which the GI50 is 0.301 µM and the TGI is more than 48.3 µM.
In the case of `O=C(c1c(F)ccc(NS(=O)(=O)N2CC[C@@H](F)C2)c1F)c1c[nH]c2ncc(-c3cnc(C4CC4)nc3)cc12`, the GI50 was 4.89 µM and 4.81 µM; the TGI was > 10 µM and 54.2 µM.
